This is an account of results in US20240101548A1, “HYDROXAMATE COMPOUND, PREPARATION METHOD THEREFOR AND APPLICATION THEREOF” (SHENZHEN CHIPSCREEN BIOSCIENCES CO., LTD., priority 2020, published 2024).

For test [1], the system named is EPO-induced JAK2 signal pathway. As to the kind of experiment: EPO-induced proliferation of UT-7 cells (JAK2 signal). The settings on record: Homo sapiens, UT7; UT-7 cell proliferation, EPO 10 ng/mL, 72 hours; read-out: Inhibition activity IC50 on EPO-induced JAK2 signal pathway. It counts as cell-based, human. The method, then:
The cytokine EPO, i.e. erythropoietin, can promote the proliferation and division of erythroid progenitor cells, and the signal pathway induced by EPO coupling with its receptor is mediated by JAK2-STAT5.
Human promegakaryocytic leukemia cell line UT-7 was commercially available from Cell Resource Center, Institute of Basic Medicine, Chinese Academy of Medical Sciences. The culture medium was RPIM1640 containing 10% FBS, and EPO was added for a final concentration of 10 ng/mL.
The inhibition rate of the tested compound on EPO-induced cell proliferation was calculated using Microsoft Excel.
UT-7 cell line was inoculated in 96-well plate with flat bottom at 15000 cells per well, each well was added with 10 ng/mL of human recombinant EPO (Human EPO PEPROTECH 100-64-10UG), along with tested compound respectively for a final concentration of 0, 100, 1000 or 10000 nM. After culture at 37° C. and 5% CO2 for 72 hours, alamarBlue™ Cell Viability Reagent was added to each well following the instructions. After incubation at 37° C. for color reaction, the fluorescence value at Ex530/Em590 was detected using Tecan Spark™ 10M multimode microplate reader.
The well in which neither compound nor cytokine was added was designated as […], and the fluorescence value in the wells in which the final concentration of compound was 0 was designated as 100 control. The inhibition activity […] ofthe tested compound on JAK2 could be calculated from the inhibition rate ofthe tested compound on EPO-induced cell proliferation at different doses.

Test [2] deals with IL-2-induced JAK1/JAK3 signal pathway. The test can be described thus: IL-2-induced proliferation of KHYG-1 cells (JAK1/JAK3 signal). The format is cell-based, human. As to conditions: Homo sapiens, read-out: Inhibition activity IC50 on IL-2-induced JAK1/JAK3 signal pathway. The text has this:
The main physiological function of cytokine IL-2 is to stimulate and maintain the proliferation and differentiation of T cells. Generally, IL-2 dependent T cells cannot survive in in-vitro culture for a long time, but the addition of IL-2 can make them continue to proliferate. The signal pathway induced by IL-2 coupling with its receptor is mediated by JAK1/JAK3-STAT5, so the inhibitor of JAK1 and/or JAK3 can inhibit the proliferation of IL-2 dependent cells.
Human natural killer cell lymphoma cell line KHYG-1 was commercially available from Health Science Research Resources Bank (HSRRB), and relevant culture conditions referred to those from HSRRB.
The inhibition rate of the tested compound on IL-2-induced cell proliferation was calculated using Microsoft Excel.
After culture at 37° C. and 5% CO2 for 72 hours, alamarBlue™ Cell Viability Reagent was added to each well following the instructions.
The well in which neither compound nor cytokine was added was designated as 0% control well, and the fluorescence value in the wells in which the final concentration of compound was 0 was designated as 100% control. The inhibition activity […] of the tested compound on JAK1/JAK3 could be calculated from the inhibition rate of the tested compound on IL-2-induced cell proliferation at different doses.

Setting [3] is: KHYG-1 cell proliferation, IL-2 10 ng/mL, 72 hours.

pIC50: −log10 of the molar value. Like-named read-outs stand apart in the source and are kept apart here. Some results are limits rather than exact numbers.

Regarding `CONC(=O)c1cnc(NC(=O)C2CC2)cc1Nc1cccn(-c2nccs2)c1=O` [Example 1, 6-(cyclopropylcarboxamido)-N-methoxy-4-((2-oxo-1-(thiazol-2-yl)-1,2-dihydropyridin-3-yl)amino)nicotinamide], the pIC50 in test [1] and in test [2] (setting [3]) was below 5.00 throughout. Consider `CONC(=O)c1cnc(NC(=O)C2CC2)cc1Nc1cccc(-c2nc3ccccc3n2C)c1OC` [Example 3, 6-(cyclopropylcarboxamido)-N-methoxy-4-((2-methoxy-3-(1-methyl-1H-benzo[d]imidazol-2-yl)phenyl)amino)nicotinamide], for which the pIC50 in test [1] and in test [2] (setting [3]) was below 5.00 in each case.

For `CONC(=O)c1cnc(Nc2cccnc2OC)cc1Nc1ccccc1N(C)S(C)(=O)=O` [Example 5], the pIC50 in test [1] and in test [2] (setting [3]) was below 5.00 each time. Consider `CONC(=O)c1cnc(NC(=O)C2CC2)cc1Nc1ccc(OC)cc1N(C)S(C)(=O)=O` [Example 6, 6-(cyclopropylcarboxamido)-N-methoxy-4-((4-methoxy-2-(N-methylmethanesulfonamido)phenyl)amino)nicotinamide], for which the pIC50 in test [1] and in test [2] (setting [3]) was below 5.00 throughout. As for `CONC(=O)c1cnc(NC(=O)C2CC2)cc1Nc1ccc(OC)nc1N(C)S(C)(=O)=O` [Example 7, 6-(cyclopropylcarboxamido)-N-methoxy-4-((6-methoxy-2-(N-methylmethanesulfonamido)pyridin-3-yl)amino)nicotinamide], the pIC50 in test [1] and in test [2] (setting [3]) was below 5.00 in each case. For the molecule `CONC(=O)c1cnc(Nc2ccc(F)cn2)cc1Nc1ccc(OC)nc1N(C)S(C)(=O)=O` [Example 8, 6-((5-fluoropyridin-2-yl)amino)-N-methoxy-4-((6-methoxy-2-(N-methylmethanesulfonamido)pyridin-3-yl)amino)nicotinamide], the pIC50 in test [1] and in test [2] (setting [3]) was below 5.00 in each case. Take `CONC(=O)c1cnc(Nc2cccnc2OC)cc1Nc1ccc(OC)nc1N(C)S(C)(=O)=O` [Example 9, N-methoxy-4-((6-methoxy-2-(N-methylmethanesulfonamido)pyridin-3-yl)amino)-6-((2-methoxypyridin-3-yl)amino)nicotinamide]: the pIC50 in test [1] and in test [2] (setting [3]) was below 5.00 each time.

With `CONC(=O)c1cnc(Nc2cccc(F)n2)cc1Nc1ccc(C(F)(F)F)cc1N(C)S(C)(=O)=O` [Example 11, 6-((6-fluoropyridin-2-yl)amino)-N-methoxy-4-((2-(N-methylmethanesulfonamido)-4-(trifluoromethyl)phenyl)amino)nicotinamide], the pIC50 in test [1] and in test [2] (setting [3]) was below 5.00 throughout.

For the molecule `CONC(=O)c1cnc(Nc2ccc(F)cc2)cc1Nc1ccc(C2CC2)cc1N(C)S(C)(=O)=O` [Example 15, 4-((4-cyclopropyl-2-(N-methylmethanesulfonamido)phenyl)amino)-6-((4-fluorophenyl)amino)-N-methoxy nicotinamide], the pIC50 in test [1] and in test [2] (setting [3]) was below 5.00 each time. `CONC(=O)c1cnc(Nc2ccc(F)cc2)cc1Nc1cccnc1N(C)S(C)(=O)=O` [Example 17, 6-((4-fluorophenyl)amino)-N-methoxy-4-((2-(N-methylmethanesulfonamido)pyridin-3-yl)amino)nicotinamide]: the pIC50 in test [1] and in test [2] (setting [3]) was below 5.00 throughout.

As for `CC(C)ONC(=O)c1cnc(Nc2cccc(F)n2)cc1Nc1ccc(C2CC2)cc1N(C)S(C)(=O)=O` [Example 23, 4-((4-cyclopropyl-2-(N-methylmethanesulfonamido)phenyl)amino)-6-((6-fluoropyridin-2-yl)amino)-N-isopropoxy nicotinamide], the pIC50 in test [1] and in test [2] (setting [3]) was below 5.00 throughout.

As to `C#Cc1ccc(Nc2cc(Nc3cccc(F)n3)ncc2C(=O)NOC(C)C)c(N(C)S(C)(=O)=O)c1` [Example 24], the pIC50 in test [1] and in test [2] (setting [3]) was below 5.00 throughout. Consider `CCONC(=O)c1cnc(Nc2cc(C)nc(C)n2)cc1Nc1cccc(-c2cnn(C)c2)c1OC` [Example 25, 6-((2,6-dimethylpyrimidin-4-yl)amino)-N-ethoxy-4-((2-methoxy-3-(1-methyl-1H-pyrazol-4-yl)phenyl)amino)nicotinamide], for which the pIC50 in test [1] and in test [2] (setting [3]) was below 5.00 in each case. Turning to `CCONC(=O)c1cnc(NC(=O)C2CC2)cc1Nc1cccc(-c2cnn(C)c2)c1OC` [Example 26, 6-(cyclopropylcarboxamido)-N-ethoxy-4-((2-methoxy-3-(1-methyl-1H-pyrazol-4-yl)phenyl)amino)nicotinamide], the pIC50 in test [1] and in test [2] (setting [3]) was below 5.00 each time. Regarding `CCONC(=O)c1cnc(Nc2ccc(C3CC3)cn2)cc1Nc1ccccc1N(C)S(C)(=O)=O` [Example 27, 6-((5-cyclopropylpyridin-2-yl)amino)-N-ethoxy-4-((2-(N-methylmethanesulfonamido)phenyl)amino)nicotinamide], the pIC50 in test [1] and in test [2] (setting [3]) was below 5.00 throughout. For the molecule `CONC(=O)c1cnc(NC(=O)C2CC2)cc1Nc1ccc2cnn(C)c2c1` [Example 28, 6-(cyclopropylcarboxamido)-N-methoxy-4-((1-methyl-1H-indazol-6-yl)amino)nicotinamide], the pIC50 in test [1] and in test [2] (setting [3]) was below 5.00 each time.

For the molecule `CONC(=O)c1cnc(Nc2cccc(F)n2)cc1Nc1cccc(-c2ccn(C)n2)c1OC` [Example 30, 6-((6-fluoropyridin-2-yl)amino)-N-methoxy-4-((2-methoxy-3-(1-methyl-1H-pyrazol-3-yl)phenyl)amino)nicotinamide], the pIC50 in test [1] and in test [2] (setting [3]) was below 5.00 in each case. For the molecule `CONC(=O)c1cnc(NC(=O)C2CC2)cc1Nc1cccc(C#N)c1OC` [Example 31, 4-((3-cyano-2-methoxyphenyl)amino)-6-(cyclopropylcarboxamido)-N-methoxy nicotinamide], the pIC50 in test [1] and in test [2] (setting [3]) was below 5.00 throughout. With `CONC(=O)c1cnc(NC(=O)C2CC2)cc1Nc1cccc(F)c1N(C)S(C)(=O)=O` [Example 32, 6-(cyclopropylcarboxamido)-4-((3-fluoro-2-(N-methylmethanesulfonamido)phenyl)amino)-N-methoxy nicotinamide], the pIC50 in test [1] and in test [2] (setting [3]) was below 5.00 in each case. On to `CONC(=O)c1cnc(NC(=O)C2CC2)cc1Nc1cccc(C)c1N(C)S(C)(=O)=O` [Example 33, 6-(cyclopropylcarboxamido)-N-methoxy-4-((3-methyl-2-(N-methylmethanesulfonamido)phenyl)amino)nicotinamide], for which the pIC50 in test [1] and in test [2] (setting [3]) was below 5.00 each time. As to `CONC(=O)c1cnc(NC(=O)C2CC2)cc1Nc1ccccc1S(=O)(=O)N(C)C` [Example 34, 6-(cyclopropylcarboxamido)-4-((2-(N,N-dimethylaminosulfonyl)phenyl)amino)-N-methoxy nicotinamide], the pIC50 in test [1] and in test [2] (setting [3]) was below 5.00 in each case.

For `CONC(=O)c1cnc(NC(=O)C2CC2)cc1Nc1cccnc1N(C)S(C)(=O)=O` [Example 35, 6-(cyclopropylcarboxamido)-N-methoxy-4-((2-(N-methylmethanesulfonamido)pyridin-3-yl)amino)nicotinamide], the pIC50 in test [1] and in test [2] (setting [3]) was below 5.00 throughout. Consider `CONC(=O)c1cnc(Nc2cccc(F)n2)cc1Nc1ccccc1S(=O)(=O)N(C)C` [Example 37, 4-((2-(N,N-dimethylaminosulfonyl)phenyl)amino)-6-((6-fluoropyridin-2-yl)amino)-N-methoxy nicotinamide], for which the pIC50 in test [1] and in test [2] (setting [3]) was below 5.00 throughout. As for `CONC(=O)c1cnc(NC(=O)C2CC2)cc1Nc1ccccc1OC1COC1` [Example 39, 6-(cyclopropylcarboxamido)-N-methoxy-4-((2-(oxetan-3-yloxy)phenyl)amino)nicotinamide], the pIC50 in test [1] is below 5.00; in test [2] (KHYG-1, 72 h), below 5.00. With `CONC(=O)c1cnc(Nc2cccc(F)n2)cc1Nc1ccccc1OC1COC1` [Example 40], the pIC50 in test [1] and in test [2] (setting [3]) was below 5.00 in each case.

On to `N#CC[C@H](C1CCCC1)n1cc(-c2ncnc3[nH]ccc23)cn1` [ruxolitinib, reference compound], for which, in test [1], the pIC50 is above 7.00.
